2 compounds from US20090169494A1, “Sunscreen cosmetic composition” (Shiseido Company Ltd, priority 2005, published 2009) can be followed below.

The data set can be described thus: Solubility of the triazine UV absorbent in oil components A-E. The data set is classed as physicochemical. Conditions: dissolved at 80° C., three days stirring at 0° C., supernatant absorbance at 342.8 nm; FIG. 1. The protocol: Solubility of 2,4-bis[[4-(2-ethylhexyloxy)-2-hydroxy]phenyl]-6-(4-methoxyphenyl)-1,3,5-triazine in the following oil components A-E was measured.
2,4-bis[[4-(2-ethylhexyloxy)-2-hydroxy]phenyl]-6-(4-methoxyphenyl)-1,3,5-triazine is heated and dissolved at 80° C. in each of the aforementioned oil components A-E. After the temperature naturally cools down to room temperature, a small amount of 2,4-bis[[4-(2-ethylhexyloxy)-2-hydroxy]phenyl]-6-(4-methoxyphenyl)-1,3,5-triazine in powder form is added, followed by three days of stirring and cooling (stirrer) at 0° C. After this, the supernatant solution is quickly sampled before the temperature rises and 30 mg (actual measurement) of it is diluted to 100 mL of ethyl acetate. The absorbance at 342.8 nm of the obtained diluted solution is measured. The obtained absorbance is plotted against a previously prepared calibration curve to determine the solubility.

Regarding `CC(C)COc1ccc(-n2nc3ccccc3n2)c(O)c1` [Oil component E, 2-(2-hydroxy-4-isobutoxyphenyl)-2H-benzotriazole], the “Solubility of 2,4-bis[[4-(2-ethylhexyloxy)-2-hydroxy]phenyl]-6-(4-methoxyphenyl)-1,3,5-triazine in the oil component” value is given as “particularly good”. `CCCCC(CC)COc1ccc(-n2nc3ccccc3n2)c(O)c1` (centres unmarked) [Oil component D, 2-[4-(2-ethylhexyloxy)-2-hydroxyphenyl]-2H-benzotriazole]: the “Solubility of 2,4-bis[[4-(2-ethylhexyloxy)-2-hydroxy]phenyl]-6-(4-methoxyphenyl)-1,3,5-triazine in the oil component” value is on record as “particularly good”.
